Laboratory results published in US20250296953A1, “3,4-THIAZOLO-STEROIDS AND METHODS OF MAKING AND USING THE SAME” (Arkansas State University - Jonesboro, priority 2018, published 2025).
Like-named read-outs stand apart in the source and are kept apart here.

Assays:
[1] = test system: 60 different human tumor cell lines; conditions: for CC50: read-out: LC50
NCI-H522 (NSCLC) = experiment: NCI 60 one dose screen; type: cell-based, human; conditions: Non-small Cell Lung Cancer
gliosarcoma (SF-539) = experiment: NCI 60 five dose screen
[2] = RXF 393 (Renal Cancer), five dose
[3] = SK-MEL-28 (Melanoma), five dose
[4] = SK-OV-3 (Ovarian Cancer), five dose
[5] = SN12C (Renal Cancer), five dose
[6] = SW-620 (Colon Cancer), five dose
[7] = T-47D (Breast Cancer), five dose
[8] = TK-10 (Renal Cancer), five dose
[9] = UO-31 (Renal Cancer), five dose

(1S,2R,13R,14S,18S)-7-(3-fluoroanilino)-2,18-dimethyl-6-thia-8-azapentacyclo[11.7.0.02,10.05,9.014,18]icosa-5(9),7,10-trien-17-one [IIa.8]
GI50 [1, 2]: 1.45 µM | TGI [1, 2]: 3.25E−6 | GI50 ([1]; SF-268 (CNS Cancer), five dose): 3.09 µM | TGI ([1]; SF-268 (CNS Cancer), five dose): 1.11E−5 | GI50 ([1]; SK-MEL-2 (Melanoma), five dose): 1.86 µM | TGI ([1]; SK-MEL-2 (Melanoma), five dose): 5.19E−5 | GI50 ([1]; SK-MEL-5 (Melanoma), five dose): 2.02 µM | TGI ([1]; SK-MEL-5 (Melanoma), five dose): 4.32E−6 | GI50 [1, 3]: 1.52 µM | TGI [1, 3]: 4.27E−6 | GI50 [1, 4]: 2.33 µM | TGI [1, 4]: 6.10E−6 | GI50 [1, 5]: 2.36 µM | TGI [1, 5]: 6.02E−6 | GI50 ([1]; SNB-19 (CNS Cancer), five dose): 2.33 µM | TGI ([1]; SNB-19 (CNS Cancer), five dose): 5.69E−6 | GI50 ([1]; SNB-75 (CNS Cancer), five dose): 1.52 µM | TGI ([1]; SNB-75 (CNS Cancer), five dose): 4.94E−6 | GI50 [1, 6]: 2.33 µM | TGI [1, 6]: 4.99E−6 | GI50 [1, 7]: 2.22 µM | TGI [1, 7]: 6.95E−6 | GI50 [1, 8]: 1.97 µM | TGI [1, 8]: 4.15E−6 | GI50 ([1]; U251 (CNS Cancer), five dose): 1.59 µM | TGI ([1]; U251 (CNS Cancer), five dose): 3.68E−6 | GI50 ([1]; UACC-62 (Melanoma), five dose): 1.54 µM | TGI ([1]; UACC-62 (Melanoma), five dose): 3.12E−6 | GI50 ([1]; UACC-257 (Melanoma), five dose): 5.47 µM | TGI ([1]; UACC-257 (Melanoma), five dose): 6.45E−5 | GI50 [1, 9]: 1.67 µM | TGI [1, 9]: 3.59E−6 | GI50 ([1]; four of six central nervous system (CNS) cell lines): < 2 µM | CC50 ([1]; 786-0 (Renal Cancer), five dose): 5.61 µM | CC50 ([1]; A498 (Renal Cancer), five dose): > 100 µM | CC50 ([1]; A549/ATCC (Non-small Cell Lung Cancer), five dose): > 100 µM | CC50 ([1]; ACHN (Renal Cancer), five dose): 5.92 µM | CC50 ([1]; BT-549 (Breast Cancer), five dose): 8.49 µM | CC50 ([1]; CAKI-1 (Renal Cancer), five dose): 38.1 µM | CC50 ([1]; CCRF-CEM (Leukemia), five dose): > 100 µM | CC50 ([1]; COLO 205 (Colon Cancer), five dose): 24.4 µM | CC50 ([1]; DU-145 (Prostate Cancer), five dose): 27.4 µM | CC50 ([1]; EKVX (Non-small Cell Lung Cancer), five dose): > 100 µM | CC50 ([1]; HCC-2998 (Colon Cancer), five dose): 88 µM | CC50 ([1]; HCT-15 (Colon Cancer), five dose): 14.7 µM | CC50 ([1]; HCT-116 (Colon Cancer), five dose): 6.58 µM | CC50 ([1]; HL-60(TB) (Leukemia), five dose): > 100 µM | CC50 ([1]; HOP-62 (Non-small Cell Lung Cancer), five dose): 24.5 µM | CC50 ([1]; HOP-92 (Non-small Cell Lung Cancer), five dose): 7.73 µM | CC50 ([1]; HT29 (Colon Cancer), five dose): 8.28 µM | CC50 ([1]; IGROV1 (Ovarian Cancer), five dose): 7.76 µM | CC50 ([1]; K-562 (Leukemia), five dose): > 100 µM | CC50 ([1]; KM12 (Colon Cancer), five dose): 79.2 µM | CC50 ([1]; LOX IMVI (Melanoma), five dose): 6.16 µM | CC50 ([1]; M14 (Melanoma), five dose): 81.4 µM | CC50 ([1]; MALME-3M (Melanoma), five dose): 26.7 µM | CC50 ([1]; MCF7 (Breast Cancer), five dose): 7.87 µM | CC50 ([1]; MDA-MB-231/ATCC (Breast Cancer), five dose): 9.99 µM | CC50 ([1]; MDA-MB-435 (Melanoma), five dose): > 100 µM | CC50 ([1]; MOLT-4 (Leukemia), five dose): > 100 µM | CC50 ([1]; NCI-H23 (Non-small Cell Lung Cancer), five dose): 77.7 µM | CC50 ([1]; NCI-H226 (Non-small Cell Lung Cancer), five dose): 81.5 µM | CC50 ([1]; NCI-H460 (Non-small Cell Lung Cancer), five dose): > 100 µM | CC50 ([1]; NCI-H522 (Non-small Cell Lung Cancer), five dose): 5.75 µM | CC50 ([1]; NCI/ADR-RES (Ovarian Cancer), five dose): > 100 µM | CC50 ([1]; OVCAR-3 (Ovarian Cancer), five dose): 6.34 µM | CC50 ([1]; OVCAR-4 (Ovarian Cancer), five dose): > 100 µM | CC50 ([1]; OVCAR-5 (Ovarian Cancer), five dose): > 100 µM | CC50 ([1]; OVCAR-8 (Ovarian Cancer), five dose): 68.7 µM | CC50 ([1]; PC-3 (Prostate Cancer), five dose): 7.94 µM | CC50 [1, 2]: 7.31 µM | CC50 ([1]; SF-268 (CNS Cancer), five dose): > 100 µM | CC50 ([1]; SK-MEL-2 (Melanoma), five dose): 26.7 µM | CC50 ([1]; SK-MEL-5 (Melanoma), five dose): 9.24 µM | CC50 [1, 4]: > 100 µM | CC50 [1, 5]: 36 µM | CC50 ([1]; SNB-19 (CNS Cancer), five dose): 22.7 µM | CC50 ([1]; SNB-75 (CNS Cancer), five dose): > 100 µM | CC50 [1, 6]: > 100 µM | CC50 [1, 7]: > 100 µM | CC50 [1, 8]: 8.72 µM | CC50 ([1]; U251 (CNS Cancer), five dose): 8.51 µM | CC50 ([1]; UACC-62 (Melanoma), five dose): 6.31 µM | CC50 ([1]; UACC-257 (Melanoma), five dose): > 100 µM | CC50 [1, 9]: 7.69 µM | Growth Percent (NCI-H522 (NSCLC)): −43.73% | GI50 (gliosarcoma (SF-539); SF-539 (CNS Cancer), five dose): 1.34 µM | TGI (gliosarcoma (SF-539); SF-539 (CNS Cancer), five dose): 2.94E−6 | GI50 (gliosarcoma (SF-539); gliosarcoma SF-539): 1.34 µM | CC50 (gliosarcoma (SF-539); read-out: LC50, SF-539 (CNS Cancer), five dose): 6.45 µM
